What was measured:
[1] = target: T1, Alpha-2C adrenergic receptor (Homo sapiens) (UniProt P18825); experiment: (§1) Displacement of [3H]-UK14304 from recombinant human alpha2c adrenergic receptor expressed in CHOK1 cell membranes after 30 mins by scintillation counting analysis; conditions: CHO-K1
T1 sequence (whole entry): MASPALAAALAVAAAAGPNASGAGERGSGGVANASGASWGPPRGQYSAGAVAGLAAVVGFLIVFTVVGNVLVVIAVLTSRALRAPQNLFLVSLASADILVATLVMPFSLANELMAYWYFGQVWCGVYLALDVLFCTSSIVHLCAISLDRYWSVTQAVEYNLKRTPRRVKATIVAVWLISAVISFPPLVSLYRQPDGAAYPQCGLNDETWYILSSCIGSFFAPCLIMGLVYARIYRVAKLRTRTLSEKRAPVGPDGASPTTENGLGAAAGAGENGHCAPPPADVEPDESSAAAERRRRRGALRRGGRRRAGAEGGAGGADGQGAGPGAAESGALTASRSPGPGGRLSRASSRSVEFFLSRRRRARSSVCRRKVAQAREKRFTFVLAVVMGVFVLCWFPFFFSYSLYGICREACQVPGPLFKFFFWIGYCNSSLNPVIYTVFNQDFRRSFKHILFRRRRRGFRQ

[2] = target: T2, Alpha-2C adrenergic receptor (Homo sapiens, UniProt P18825); experiment: as §1; set-up: species or system CHO-K1
T2 sequence (P18825 whole entry): T1 sequence (whole entry)

[3] = target: T2, Alpha-2C adrenergic receptor; experiment: Agonist activity at recombinant human alpha2c adrenergic receptor expressed in CHOK1 cells co-expressing Gqi5 assessed as induction of cytoplasmic calcium mobilization measured for 40 secs by fluorometric analysis; assay type: functional, cell-based, CHO-K1
[4] = target: T1, Alpha-2C adrenergic receptor (Homo sapiens); experiment: Agonist activity at recombinant human alpha2c adrenergic receptor expressed in CHOK1 cells co-expressing Gqi5 assessed as induction of cytoplasmic calcium mobilization measured for 40 secs by fluorometric analysis relative to UK14304; assay type: functional, cell-based; conditions: CHO-K1
[5] = target: Somatostatin receptor type 4 (Homo sapiens) (UniProt P31391); experiment: Agonist activity at recombinant human sst4 receptor expressed in CHOK1 cells co-expressing Galpha16 assessed as induction of cytoplasmic calcium mobilization at 250 uM measured for 40 secs by fluorometric analysis relative to L-803087; assay type: functional, cell-based; conditions: CHO-K1
Chain of Somatostatin receptor type 4 (Homo sapiens) (P31391 whole entry): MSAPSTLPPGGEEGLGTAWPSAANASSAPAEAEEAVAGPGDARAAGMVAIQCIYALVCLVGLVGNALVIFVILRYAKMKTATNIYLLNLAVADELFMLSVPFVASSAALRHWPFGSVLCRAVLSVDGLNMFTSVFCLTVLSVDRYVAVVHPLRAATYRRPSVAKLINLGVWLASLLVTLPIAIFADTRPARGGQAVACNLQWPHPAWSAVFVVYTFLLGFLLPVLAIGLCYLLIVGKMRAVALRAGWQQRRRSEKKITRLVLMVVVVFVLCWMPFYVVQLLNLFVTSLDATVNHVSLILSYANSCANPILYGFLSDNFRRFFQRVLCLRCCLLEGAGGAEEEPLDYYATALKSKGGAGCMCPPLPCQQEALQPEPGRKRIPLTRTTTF

Structure (SMILES) | Emax [1] [%] | Ki [2] [nM] | EC50 [3] [µM] | Emax [4] [%] | Activity [5] [%]
CN1CCN(c2cccc(N)c2)CC1 |  | 562 |  |  | 
Cc1ccccc1Cn1ccnc1CNC(C)C | 102 | 22400 | 148 | 55 | 
CCNCC(=O)N1CCn2cccc2C1c1cccc(Cl)c1 (configuration not stated) | 99 | 7240 | > 501 | > 88 | 
O=C(CCC1CCCC1)N1CCSC12CCNCC2 | 81 | 15500 | > 501 | > 82 | 
CN1CCN(c2ccccc2N)CC1 |  | 240 |  |  | 
NCC(=O)Nc1ccccc1Oc1ccccc1 | 81 | 15500 | 631 | 93 | 
COc1ccc(C2NCCCn3cccc32)cc1 (configuration not stated) |  | 13800 |  |  | 
CN1CCN(c2ccc(N)cc2)CC1 | 100 | 1510 | > 501 | > 36 | < 10
COc1ccccc1OCC1CNCCO1 (configuration not stated) | 81 | 10500 | > 501 | > 77 | 
OC(Cn1ccnc1)c1ccc(Cl)cc1Cl (configuration not stated) | 78 | 15100 | 339 | 123 | 
NCCCN(C(=O)c1ccccc1)c1ccccc1 | 104 | 8320 | > 501 | > 51 | 
c1ccc(-c2nc(CNCc3cccnc3)c[nH]2)cc1 | 102 | 5250 | 479 | 87 | 
N#Cc1cccc(-c2ccccc2CCN)c1 | 100 | 11.7 | > 501 | > 75 | 

Further molecules by falling Ki [2], results first:

Emax [1] [%] | Ki [2] [nM] | EC50 [3] [µM] | Emax [4] [%] | Structure (SMILES) | Activity [5] [%]
97 | 1170 | > 501 | > 105 | Brc1cccc(Cn2ccnc2)c1 | 
98 | 1070 | 3.47 | 56 | c1cncc(-c2ccccc2NCc2ccncc2)c1 | 
92 | 646 | 3.16 | 49 | NCCSc1nc2ccccc2o1 | 
92 | 537 | > 501 | > 66 | Cc1ccccc1NCc1ccncc1 | 
92 | 83.2 | 1.38 | 70 | Oc1cc2c(cc1O)C(c1ccccc1)CNCC2 (configuration not stated) [SKF-38393] | 
100 | 72.4 | 0.174 | 60 | Cc1ccccc1NCc1cnc[nH]1 | 
102 | 2.29 | 0.055 | 55 | c1ccc2c(CC3=NCCN3)cccc2c1 [NAPHAZOLINE] | 

From ChEMBL document CHEMBL3588743, “Cell-based and virtual fragment screening for adrenergic α2C receptor agonists” (Bioorg Med Chem, 2015)
